Laboratory results from paper PMC7470163, “Effects of ticagrelor on the pharmacokinetics of rivaroxaban in rats” (Pharmaceutical Biology, 2020).
Where two headings read alike, the source gives them in different places. Values belong to the compound of their own block, whether it stands above or below them.

How the values were obtained:
[1] = parameters: method as in Teng and Butler [2013]; conditions: concomitant use of ticagrelor; ref Teng and Butler [2013]; cited from earlier work
[2] = parameters: method as in Butler and Teng [2011]; conditions: oral administration of ticagrelor, healthy volunteers; ref Butler and Teng [2011]; cited from earlier work
[3] = tested on: rivaroxaban metabolism in RLMs; assay: In vitro interaction study: inhibition of rivaroxaban metabolism by ticagrelor in RLMs; format: in vitro ADME, Sprague-Dawley rat; conditions: read-out: IC50 (ticagrelor decreased rivaroxaban metabolic clearance)
Description: The pooled rat liver microsomes (RLMs) were obtained from 8 rats, which were weighed and homogenized with cold […] phosphate-buffered saline (PBS) containing 0.25 mM sucrose. After centrifuging at 11000 rpm for 15 min, the supernatants were separated and transferred into new tubes for another 15 min centrifugation at 11000 rpm. Then ultracentrifugation was performed at 10000 rpm at 4 °C for 1 h, and the microsomal pellets were resuspended with cold 0.01 mM PBS and stored at −80 °C. The protein concentration of RLMs was determined using the Bradford Protein Assay Kit (Thermo Scientific, Waltham, MA, USA).
Ticagrelor was applied as the inhibitor to determine the half-maximal inhibitory concentration (IC50). The incubation mixture in a total volume of 200 μL contained 0.5 mg/mL of RLMs, 100 mM potassium phosphate buffer (pH 7.4), rivaroxaban (20 μM), ticagrelor (1, 2.5, 5, 10, 25, 50 and 100 μM) and 1 mM NADPH. After preincubation in a shaking water bath at 37 °C for 5 min, NADPH was added to initiate the reaction in a final volume of 200 μL. […]
The GraphPad (version 8.0; GraphPad Software Inc., San Diego, CA, USA) was applied to calculate IC50 and plot plasma concentration-time curves. The pharmacokinetic parameters using non-compartmental analysis were calculated by DAS (version 3.2.8; Wenzhou Medical University, China). […]

[4] = tested on: CYP3A4 (4-hydroxylation of midazolam); parameters: method as in Zhou et al. [2011]; conditions: read-out: IC50 (inhibition of 4-hydroxylation of midazolam); in vitro; ref Zhou et al. [2011]; cited from earlier work
[5] = parameters: method as in Becker et al. [2011]; conditions: PLATO study; ref Becker et al. [2011]; cited from earlier work
[6] = In vivo pharmacokinetic experiment: oral rivaroxaban in rats with or without ticagrelor pre-treatment (plasma, UPLC-MS/MS); parameters: species or system Sprague-Dawley rats; conditions: for AUC(0-t) / AUC(0-inf) / Cmax / half-life / MRT inf / MRT last: po; for MRT inf: read-out: MRT (0–∞); for MRT last: read-out: MRT(0–t); for CLint scaled: read-out: CL (text: intrinsic clearance) (converted)
Description: Chromatographic separation was performed using the Acquity UPLC system (Waters Corp., Milford, MA, USA) and ACQUITY UPLC HSS T3 column (2.1 × 100 mm, 1.8 μm) at 40 °C. The mobile phase comprising acetonitrile (A) and 0.1% formic acid water (B) was set with a flow rate of 0.40 mL/min. The gradient programme was applied as follows: 0–0.5 min, 30% A; 0.5–1 min, 30–95% A; 1–2 min, 95% A; […], 95% A; 2.5–2.6 min, 95–30% A; 2.6–3 min, 30% A. The total time required for analysis was 3 min. The sample manager underwent a strong wash (methanol water, 50/50, V/V) and a weak wash (methanol water, 10/90, V/V) after each injection.
XEVO TQD triple quadrupole mass spectrometer was equipped with electrospray ionization (ESI), and multiple-reaction monitoring (MRM) mode was selected for quantization. The precursor ion and product ion were m/z 435.93→144.81 for rivaroxaban and m/z 285.1→193.1 for diazepam (internal standard, IS), respectively. The optimal MS parameters were defined as follows: the cone voltages were set at 35 V and 50 V for rivaroxaban and IS; the collision energies were set at 30 V and 25 V for rivaroxaban and IS. Masslynx 4.1 software (Waters Corp., Milford, MA, USA) was used for data acquisition, and the UPLC-MS/MS chromatogram of blank plasma that was spiked with rivaroxaban and IS was shown below (Figure 2).
Ten specific pathogen-free (SPF) grade Sprague–Dawley rats (male, 220 ± 20 g) were provided by Wenzhou Medical University Laboratory Animal Research Centre. All experimental procedures and protocols were reviewed and approved by the Animal Care and Use Committee of Wenzhou Medical University and were in accordance with the Guide for the Care and Use of Laboratory Animals (ID Number: wydw2019-650). Ten rats were randomly divided into two groups: the ticagrelor group (n = 5) and the control group (n = 5). Rats were bred at 25 °C with 60 ± 5% humidity and a 12 h dark/light cycle. Enough tap water and normal chow were provided ad libitum. The rats were placed under the above conditions for one week before initiating the experiment.
The ticagrelor group was pre-treated with ticagrelor by oral gavage at a dose of 10 mg/kg/day (dissolved in CMC-Na solution) for two weeks before the administration of rivaroxaban. The control group also received equal amounts of the vehicle (CMC-Na solution). Rivaroxaban was dissolved in dimethyl sulfoxide (DMSO) and was then diluted with polyethylene glycol 200 so that DMSO accounted for 5% of the total volume. Each group of rats was given an oral gavage of rivaroxaban at a dose of 10 mg/kg, and then blood was collected via the rat’s tail vein for analysis at 0.083, 0.25, 0.5, 1, 2, 3, 4, 6, 8, 12 and 24 h. Samples were collected into 1.5 mL centrifuge tubes and were immediately centrifuged at 4000 rpm for 10 min.
Every 100 µL of rat plasma was added with 200 µL of acetonitrile in 0.5 μg/mL of IS, followed by vortex mixing for 1 min. After centrifugation at 13000 rpm for 15 min, 5 µL of supernatant was prepared for UPLC-MS/MS system to analyse.
The GraphPad (version 8.0; GraphPad Software Inc., San Diego, CA, USA) was applied to calculate IC50 and plot plasma concentration-time curves. The pharmacokinetic parameters using non-compartmental analysis were calculated by DAS (version 3.2.8; Wenzhou Medical University, China). Statistical comparisons within groups were conducted by SPSS (version 25.0; SPSS Inc., Chicago, IL, USA), using Student’s t-test. Values of p < 0.05 were considered statistically significant.

[7] = Enzyme kinetics of rivaroxaban metabolism in rat liver microsomes; format: in vitro ADME, Sprague-Dawley rat; conditions: Sprague-Dawley, rat, rat liver microsomes, pH 7.4, RLMs 0.5 mg/mL, 37 °C, 1 mM NADPH, R squared 0.979
Description: (§1) The pooled rat liver microsomes (RLMs) were obtained from 8 rats, which were weighed and homogenized with cold […] phosphate-buffered saline (PBS) containing 0.25 mM sucrose. After centrifuging at 11000 rpm for 15 min, the supernatants were separated and transferred into new tubes for another 15 min centrifugation at 11000 rpm. Then ultracentrifugation was performed at 10000 rpm at 4 °C for 1 h, and the microsomal pellets were resuspended with cold 0.01 mM PBS and stored at −80 °C. The protein concentration of RLMs was determined using the Bradford Protein Assay Kit (Thermo Scientific, Waltham, MA, USA). […] The incubation time was 30 min. Incubations were initiated following a 5 min pre-incubation in a shaking water bath at 37 °C. 1 mM NADPH was added to initiate the reaction in a final volume of 200 μL. The reaction was stopped immediately by cooling to −80 °C. After that, 20 μL IS working solution and 200 μL acetonitrile were added. Centrifugation was performed at 13000 rpm for 5 min after vortexing for 1 min, and the supernatant was collected. Each incubation sample study was performed in separate EP tubes, performed in triplicate and analysed by UPLC-MS/MS. We selected 2 μL of RLMs with a concentration of 0.5 mg/mL in PBS for 30 minutes as the condition for enzyme kinetic studies. […]

[8] = tested on: rat liver microsomes (RLMs); assay: as above; format: in vitro ADME, Sprague-Dawley rat; conditions: RLMs 0.5 mg/mL, 30 min, 37 °C, 1 mM NADPH, R squared 0.979
Description: as §1

[9] = parameters: method as in Abrams and Emerson [2009]; conditions: phase I trials; ref Abrams and Emerson [2009]; cited from earlier work
CYP3A4 = tested on: CYP3A4; parameters: method as in Kvasnicka et al. [2017]; conditions: ref Kvasnicka et al. [2017]; cited from earlier work
CYP2J2 = tested on: CYP2J2; parameters: method as in Kvasnicka et al. [2017]; conditions: ref Kvasnicka et al. [2017]; cited from earlier work
[10] = parameters: method as in Mueck et al. [2013]; conditions: co-administration of ketoconazole; ref Mueck et al. [2013]; cited from earlier work
[11] = parameters: method as in Eriksson et al. [2009]; Altena et al. [2014]; conditions: with CYP3A4 inducer rifampicin; ref Eriksson et al. [2009]; Altena et al. [2014]; cited from earlier work
[12] = parameters: method as in Mega et al. [2012]; conditions: low-dose rivaroxaban (2.5 mg or 5 mg twice daily) co-administered with DAPT; ref Mega et al. [2012]; cited from earlier work
[13] = male, Sprague-Dawley, rat, plasma, 10 mg/kg, rivaroxaban 10 mg/kg oral, rats pre-treated with ticagrelor 10 mg/kg/day for 14 days
[14] = male, Sprague-Dawley, rat, plasma, 10 mg/kg, rivaroxaban 10 mg/kg oral, rats, control group (no ticagrelor)
[15] = male, Sprague-Dawley, rat, plasma, 10 mg/kg, rivaroxaban 10 mg/kg oral, rats, without ticagrelor pre-treatment
[16] = male, Sprague-Dawley, rat, plasma, rivaroxaban 10 mg/kg oral, rats, control group (no ticagrelor)
[17] = rats, oral ticagrelor 10 mg/kg/day for 14 days vs control
[18] = rivaroxaban 10 mg/kg oral, rats pre-treated with ticagrelor 10 mg/kg/day for 14 days

Compound: C[C@H]1O[C@@H](O[C@H]2[C@@H](O)C[C@H](O[C@H]3[C@@H](O)C[C@H](O[C@H]4CC[C@@]5(C)[C@H](CC[C@@H]6[C@@H]5C[C@@H](O)[C@]5(C)[C@@H](C7=CC(=O)OC7)CC[C@]65O)C4)O[C@@H]3C)O[C@@H]2C)C[C@H](O)[C@@H]1O [digoxin]
- increase of digoxin AUC [1]: 28%
- increase of digoxin Cmax [1]: 75%

Compound: C#C[C@]1(O)CC[C@H]2[C@@H]3CCc4cc(O)ccc4[C@H]3CC[C@@]21C [ethinyloestradiol]
- increase of AUC0–t of ethinyloestradiol [2]: 20%
- increase of Cmax of ethinyloestradiol [2]: 31%
- increase of Cmin of ethinyloestradiol [2]: 20%

- IC50 [3]: 14 µM
Compound: CCCSc1nc(N[C@@H]2C[C@H]2c2ccc(F)c(F)c2)c2nnn([C@@H]3C[C@H](OCCO)[C@@H](O)[C@H]3O)c2n1 [ticagrelor, Ticagrelor]
- non-CABG major bleeding [5]: 4.5%
- non-procedure-related major bleeding [5]: 3.1%

Compound: COC(=O)[C@H](c1ccccc1Cl)N1CCc2sccc2C1 [clopidogrel]
- non-CABG major bleeding [5]: 3.8%
- non-procedure-related major bleeding [5]: 2.3%

- AUC(0-t) ([6]; male, Sprague-Dawley, rat, plasma, 10 mg/kg, rivaroxaban 10 mg/kg oral single dose, rats pre-treated with ticagrelor 10 mg/kg/day oral for 14 days, n=5, mean ± SD): 3480 ± 754 ng·h/mL
- AUC(0-t) ([6]; male, Sprague-Dawley, rat, plasma, 10 mg/kg, rivaroxaban 10 mg/kg oral single dose, rats, control group (vehicle, no ticagrelor), n=5, mean ± SD): 1060 ± 291 ng·h/mL
- AUC(0-inf) [6, 13]: 3580 ± 736 ng·h/mL
- Cmax [6, 13]: 691 ± 238 ng/mL
- half-life [6, 13]: 5.12 ± 1.65 h
- MRT inf [6, 13]: 5.97 ± 1.11 h
- MRT last [6, 13]: 5.18 ± 0.91 h
- AUC(0-inf) [6, 14]: 1070 ± 299 ng·h/mL
- Cmax [6, 14]: 221 ± 53.3 ng/mL
- half-life [6, 14]: 2.64 ± 0.72 h
- MRT inf [6, 14]: 4.41 ± 0.79 h
- MRT last [6, 14]: 4.32 ± 0.66 h
- AUC(0-t) ([6]; male, Sprague-Dawley, rat, plasma, 10 mg/kg, rivaroxaban 10 mg/kg oral, rats with ticagrelor pre-treatment 10 mg/kg/day for 14 days): 3480 ± 754 ng·h/mL
- AUC(0-inf) [6, 15]: 1070 ± 299 ng·h/mL
- AUC(0-t) [6, 15]: 1060 ± 291 ng·h/mL
- AUC(0-inf) ([6]; male, Sprague-Dawley, rat, plasma, rivaroxaban 10 mg/kg oral, rats with ticagrelor pre-treatment 10 mg/kg/day for 14 days): 3580 ± 736 ng·h/mL
- CLint scaled ([6]; male, Sprague-Dawley, rat, plasma, rivaroxaban 10 mg/kg oral, rats pre-treated with ticagrelor 10 mg/kg/day for 14 days): 48.2 mL/min/kg
- Tmax [6, 16]: 2 ± 0.71 h
- CLint scaled [6, 16]: 166 mL/min/kg
- increase of AUC value of rivaroxaban [6, 17]: 3.3 fold
- increase of Cmax value of rivaroxaban [6, 17]: 3.1 fold
- T max [6, 18]: 2.00 ± 0.71 h
- Vz [6, 18]: 21.89 ± 9.00 L/kg
- Vz ([6]; rivaroxaban 10 mg/kg oral, rats, control group (no ticagrelor)): 36.23 ± 5.48 L/kg
- Km at 30 min [7]: 19.1 µM
- Vmax [8]: 3.37 pmol/min/mg
Compound: O=C(NC[C@H]1CN(c2ccc(N3CCOCC3=O)cc2)C(=O)O1)c1ccc(Cl)s1 [Rivaroxaban]
- time to peak plasma concentration (Tmax) [9]: 1.5 to 4 h
- share of total rivaroxaban elimination involving CYP3A4 (CYP3A4): about 18%
- share of total rivaroxaban elimination involving CYP2J2 (CYP2J2): about 14%
- increase in Cmax value of rivaroxaban [10]: 1.7 fold
- increase in the mean AUC value of rivaroxaban [10]: 2.6 fold
- reduction in the systemic exposure of rivaroxaban [11]: 50%
- risk of intracranial hemorrhage [12]: 0.6%
- risk of major bleeding [12]: 2.1%
